13 compounds from PubChem BioAssay AID328 (DTP/NCI, 2004) can be followed below.

Several values for one entry are separate records, joined by “and”; a condition that tells them apart may be missing. Identical values can stand only once. Toxic doses and inconclusive results are not listed.

For this assay, the system named is BDF1 mice, P388 leukemia ip, median survival T/C. The experiment in a line: NCI In Vivo Anticancer Drug Screen. Data for tumor model P388 Leukemia (intraperitoneal) in B6D2F1 (BDF1) mice. The settings on record: endpoint: median survival time, higher = longer survival. The method in brief:
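Steps: implant the tumour, treat one group with compound and another with vehicle, record survival, then divide treated by control.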

Where [1] appears, read: dose: 0.05 mg/kg/injection, schedule: Q01DX009 (ip), vehicle: saline + alcohol.
Where [2] appears, read: dose: 0.1 mg/kg/injection, schedule: Q01DX009 (ip), vehicle: saline + alcohol.
Setting [3] is: dose: 0.2 mg/kg/injection, schedule: Q01DX009 (ip), vehicle: saline + alcohol.
Where [4] appears, read: dose: 0.3 mg/kg/injection, schedule: Q04DX003 (ip), vehicle: saline + alcohol.
Where [5] appears, read: dose: 0.6 mg/kg/injection, schedule: Q04DX003 (ip), vehicle: saline + alcohol.
Where [6] appears, read: dose: 0.8 mg/kg/injection, schedule: Q01DX001 (ip), vehicle: saline + alcohol.
The mark [7] stands for this setting: dose: 1.2 mg/kg/injection, schedule: Q04DX003 (ip), vehicle: saline + alcohol.
The mark [8] stands for this setting: dose: 2.4 mg/kg/injection, schedule: Q04DX003 (ip), vehicle: saline + alcohol.
Setting [9] is: dose: 3.2 mg/kg/injection, schedule: Q01DX001 (ip), vehicle: saline + alcohol.
[10] abbreviates: dose: 100.0 mg/kg/injection, schedule: Q01DX009 (ip), vehicle: saline with Tween-80.
The mark [11] stands for this setting: dose: 200.0 mg/kg/injection, schedule: Q01DX009 (ip), vehicle: saline with Tween-80.
The mark [12] stands for this setting: dose: 50.0 mg/kg/injection, schedule: Q01DX009 (ip), vehicle: saline with Tween-80.

Regarding `Cc1c2oc3c(C)ccc(C(=O)NC4C(=O)NC(C(C)C)C(=O)N5CCCC5C(=O)N(C)CC(=O)N(C)C(C(C)C)C(=O)OC4C)c3nc-2c(C(=O)NC2C(=O)NC(C(C)C)C(=O)N3CCCC3C(=O)N(C)CC(=O)N(C)C(C(C)C)C(=O)OC2C)c(NCCCO)c1=O` (stereo not given), the T/C reads like this: under setting [1], 150 % of control; under setting [2], 172 % of control; under setting [3], 210 % of control; under setting [4], 169 % of control; (dose: 0.4 mg/kg/injection, schedule: Q01DX009 (ip), vehicle: saline + alcohol) 226 % of control; under setting [5], 191 % of control. For the same compound, the T/C by setting is: under setting [6], 153 % of control; (dose: 0.8 mg/kg/injection, schedule: Q01DX009 (ip), vehicle: saline + alcohol) 285 % of control; under setting [7], 200 % of control; under setting [8], 261 % of control; under setting [9], 207 % of control; (dose: 4.8 mg/kg/injection, schedule: Q04DX003 (ip), vehicle: saline + alcohol) 248 % of control. For the same compound, the T/C (dose: 6.4 mg/kg/injection, schedule: Q01DX001 (ip), vehicle: saline + alcohol) was 198 % of control.

Regarding `CO/N=C1\CC(C)N2C(=O)C(C(C)C)NC(=O)C(NC(=O)c3c4nc5c(C(=O)NC6C(=O)NC(C(C)C)C(=O)N7C(C)CC(O)C7C(=O)N(C)CC(=O)N(C)C(C(C)C)C(=O)OC6C)ccc(C)c5oc-4c(C)c(=O)c3N)C(CO)OC(=O)C(C)N(C)C(=O)CN(C)C(=O)C12` (stereo not given), the T/C is 99 % of control under setting [1]; 100 % of control under setting [2]; 98 % of control (dose: 0.15 mg/kg/injection, schedule: Q04DX003 (ip), vehicle: saline + alcohol); 102 % of control under setting [3]; 100 % of control under setting [4]; 92 % of control (dose: 0.4 mg/kg/injection, schedule: Q01DX001 (ip), vehicle: saline + alcohol). For the same compound, the T/C runs as follows: under setting [5], 105 % of control; under setting [6], 110 % of control; under setting [7], 107 % of control; (dose: 1.6 mg/kg/injection, schedule: Q01DX001 (ip), vehicle: saline + alcohol) 110 % of control; under setting [8], 115 % of control; under setting [9], 118 % of control.

With `O=[n+]1c2ccccc2n([O-])c2ccccc21.[Cl][Ni][Cl]`, the T/C is 105 % of control (dose: 6.25 mg/kg/injection, schedule: Q04DX003 (ip), vehicle: saline with Tween-80) and 112 % of control (dose: 12.5 mg/kg/injection, schedule: Q04DX003 (ip), vehicle: saline with Tween-80).

As for `O=C(O)CSc1cc(-c2ccc(Cl)cc2)s[s+]1`, the T/C by setting is: (dose: 1.56 mg/kg/injection, schedule: Q01DX009 (ip), vehicle: water) 104 % of control; (dose: 2.0 mg/kg/injection, schedule: Q04DX003 (ip), vehicle: water) 100 % of control; (dose: 3.12 mg/kg/injection, schedule: Q01DX009 (ip), vehicle: water) 115 % of control; (dose: 4.0 mg/kg/injection, schedule: Q04DX003 (ip), vehicle: water) 112 % of control; (dose: 6.25 mg/kg/injection, schedule: Q01DX009 (ip), vehicle: water) 112 % of control; (dose: 6.25 mg/kg/injection, schedule: Q04DX003 (ip), vehicle: water) 117 % of control. In addition, the T/C (dose: 8.0 mg/kg/injection, schedule: Q04DX003 (ip), vehicle: water) was 100 % of control; the T/C (dose: 12.5 mg/kg/injection, schedule: Q01DX009 (ip), vehicle: water) is 107 % of control; the T/C (dose: 12.5 mg/kg/injection, schedule: Q04DX003 (ip), vehicle: water) is 100 % of control; the T/C (dose: 16.0 mg/kg/injection, schedule: Q04DX003 (ip), vehicle: water) was 90 % of control; the T/C (dose: 25.0 mg/kg/injection, schedule: Q04DX003 (ip), vehicle: water) is 97 % of control; the T/C (dose: 50.0 mg/kg/injection, schedule: Q04DX003 (ip), vehicle: water) was 97 % of control.

`O=C1OC(c2ccccc2)(c2ccccc2)Cc2ccccc21`: the T/C is, setting by setting: under setting [10], 105 % of control; under setting [11], 105 % of control; (dose: 400.0 mg/kg/injection, schedule: Q01DX009 (ip), vehicle: saline with Tween-80) 100 % of control.

Take `Nc1nc(N)c(N=O)c(Nc2ccc(Cl)c(Cl)c2)n1`: the T/C under setting [12] is 109 % of control, the T/C under setting [10] is 109 % of control and the T/C under setting [11] is 95 % of control.

In the case of `NS(=O)(=O)c1ccc(NC(=O)/C=C/C(=O)O)cc1`, the T/C by setting is: (dose: 100.0 mg/kg/injection, schedule: Q04DX003 (ip), vehicle: saline with Tween-80) 100 % of control; (dose: 200.0 mg/kg/injection, schedule: Q04DX003 (ip), vehicle: saline with Tween-80) 100 % of control; (dose: 400.0 mg/kg/injection, schedule: Q04DX003 (ip), vehicle: saline with Tween-80) 95 % of control.

For `O=c1[nH]c(=O)c2cccnc2[nH]1`, the T/C (dose: 25.0 mg/kg/injection, schedule: Q01DX009 (ip), vehicle: saline sonified) was 100 % of control; the T/C (dose: 50.0 mg/kg/injection, schedule: Q01DX009 (ip), vehicle: saline sonified) is 100 % of control; the T/C (dose: 100.0 mg/kg/injection, schedule: Q01DX009 (ip), vehicle: saline sonified) was 94 % of control.

With `OC1CCCC12CC2` (stereo not given), the T/C was 100 % of control under setting [12] and 102 % of control under setting [10].

`CCOC(=O)/C(=C\c1ccccc1)O/C(=C/c1ccccc1)C(=O)OCC`: the T/C is 89 % of control (dose: 100.0 mg/kg/injection, schedule: Q04DX002 (ip), vehicle: saline with Tween-80) and 93 % of control (dose: 400.0 mg/kg/injection, schedule: Q04DX002 (ip), vehicle: saline with Tween-80).

`CCC1/C=C/C=C/CC(C)C(O)C(C)(O)C(=O)C(C)C(O)C(C)C(=O)C(C)C(O)C(C)/C=C/C(=O)OC2C(C)C(CC1)OC1(OC(CC(C)O)C(C)CC1=O)C2C` (stereo not given) (tested in a mixture with another compound): the T/C by setting is: (dose: 0.15 mg/kg/injection, schedule: Q01DX010 (ip), vehicle: carboxymethylcellulose (CMC)) 110 % of control; (dose: 0.15 mg/kg/injection, schedule: Q01DX010 (ip), vehicle: saline) 109 % of control; (dose: 0.3 mg/kg/injection, schedule: Q01DX010 (ip), vehicle: carboxymethylcellulose (CMC)) 110 % of control; (dose: 0.3 mg/kg/injection, schedule: Q01DX010 (ip), vehicle: saline) 150 % of control and 154 % of control; (dose: 0.6 mg/kg/injection, schedule: Q01DX010 (ip), vehicle: carboxymethylcellulose (CMC)) 120 % of control; (dose: 0.6 mg/kg/injection, schedule: Q01DX010 (ip), vehicle: saline) 154 % of control. In addition, the T/C by setting is: (dose: 1.2 mg/kg/injection, schedule: Q01DX010 (ip), vehicle: carboxymethylcellulose (CMC)) 190 % of control; (dose: 1.2 mg/kg/injection, schedule: Q01DX010 (ip), vehicle: saline) 163 % of control; (dose: 2.5 mg/kg/injection, schedule: Q01DX009 (ip), vehicle: saline) 154 % of control; (dose: 2.5 mg/kg/injection, schedule: Q01DX010 (ip), vehicle: saline) 154 % of control; (dose: 5.0 mg/kg/injection, schedule: Q01DX009 (ip), vehicle: saline) 163 % of control; (dose: 37.0 micrograms/kg/injection, schedule: Q01DX010 (ip), vehicle: saline) 120 % of control. Besides, the T/C (dose: 150.0 micrograms/kg/injection, schedule: Q01DX010 (ip), vehicle: saline) is 150 % of control.

For `CSc1ccc(NC(=O)CCl)cc1`, the T/C is, setting by setting: (dose: 12.5 mg/kg/injection, schedule: Q01DX009 (ip), vehicle: saline with Tween-80) 107 % of control; (dose: 25.0 mg/kg/injection, schedule: Q01DX009 (ip), vehicle: saline with Tween-80) 105 % of control; under setting [12], 106 % of control.

Regarding `N#CCN1CCOCC1`, the T/C (dose: 75.0 mg/kg/injection, schedule: Q01DX009 (ip), vehicle: saline) was 104 % of control; the T/C (dose: 100.0 mg/kg/injection, schedule: Q04DX003 (ip), vehicle: saline) is 104 % of control; the T/C (dose: 150.0 mg/kg/injection, schedule: Q01DX009 (ip), vehicle: saline) is 95 % of control; the T/C (dose: 200.0 mg/kg/injection, schedule: Q04DX003 (ip), vehicle: saline) is 104 % of control.
